SMILES strings stand for the structures. Some results are limits rather than exact numbers.

Data set [1] is described as follows: Inhibition of HCV NS3 protease by FRET assay. Set-up: species or system Hepacivirus hominis.
In another data set the test system is Hepatitis C virus. Kind of data set: Antiviral activity against Hepatitis C virus infected human hepatoma cells by replicon assay. Type of data set: functional, organism-based, Hepacivirus hominis. (In antiviral work, replicon cells carry a viral genome segment that copies itself.)
A short description of data set [2]: Cytotoxicity against human hepatoma cells. It counts as cell-based.

A word on the Ki: it is a measure of affinity in units of concentration, obtained from inhibition or displacement. Lower therefore signals a stronger hold on the target. For `COc1ccc2c(O[C@@H]3C[C@@H](C(=O)Nc4ccc(Br)cc4)N(C(=O)[C@@H](NC(=O)OC(C)(C)C)C(C)(C)C)C3)cc(-c3ccccc3)nc2c1`, in data set [1], affinity was put at a Ki of 1800 nM. Molecule `COc1ccc2c(O[C@@H]3C[C@@H](C(=O)Nc4ccccc4C(=O)NS(=O)(=O)c4ccc(C(F)(F)F)cc4)N(C(=O)[C@@H](NC(=O)OC(C)(C)C)C(C)(C)C)C3)cc(-c3ccccc3)nc2c1` came in with a Ki in data set [1] of 310 nM. On the same count and under the same terms, to `COc1ccc2c(O[C@@H]3C[C@@H](C(=O)Nc4cccc(C(=O)NS(=O)(=O)c5ccccc5)c4)N(C(=O)[C@@H](NC(=O)OC(C)(C)C)C(C)(C)C)C3)cc(-c3ccccc3)nc2c1` belongs 780 nM. A word on the EC50: it is the midpoint of the concentration-response curve. Low values mean a more potent agent, high ones a less potent agent. By CC50 is commonly meant the concentration at which the toxic effect on the cells reaches its halfway point. In data set [1], `COc1ccc2c(O[C@@H]3C[C@@H](C(=O)Nc4cc(C(F)(F)F)ccc4C(=O)NS(=O)(=O)c4ccccc4)N(C(=O)[C@@H](NC(=O)OC(C)(C)C)C(C)(C)C)C3)cc(-c3ccccc3)nc2c1` returned a Ki of 350 nM. The molecule also had an EC50 with Hepatitis C virus of 5200 nM. For the same molecule, in data set [2], the CC50 turned out to be 28000 nM. `COc1ccc2c(O[C@@H]3C[C@@H](C(=O)Nc4ccccc4C(=O)NS(=O)(=O)C4CC4)N(C(=O)[C@@H](NC(=O)OC(C)(C)C)C(C)(C)C)C3)cc(-c3ccccc3)nc2c1` had a Ki in data set [1] of 2000 nM.

As for `COc1ccc(S(=O)(=O)NC(=O)c2ccccc2NC(=O)[C@@H]2C[C@@H](Oc3cc(-c4ccccc4)nc4cc(OC)ccc34)CN2C(=O)[C@@H](NC(=O)OC(C)(C)C)C(C)(C)C)cc1`, the Ki in data set [1] amounted to 1200 nM. Consider `COc1ccc2c(O[C@@H]3C[C@@H](C(=O)Nc4ccccc4C(=O)NS(=O)(=O)c4ccccc4)N(C(=O)[C@@H](NC(=O)OC(C)(C)C)C(C)(C)C)C3)cc(-c3ccccc3)nc2c1`, for which the Ki in data set [1] is 830 nM. As for `COc1ccc2c(O[C@@H]3C[C@@H](C(=O)Nc4ccccc4C(=O)NS(C)(=O)=O)N(C(=O)[C@@H](NC(=O)OC(C)(C)C)C(C)(C)C)C3)cc(-c3ccccc3)nc2c1`, in data set [1], the Ki was 5900 nM. The same measure, in the same setting: to `COc1ccc2c(O[C@@H]3C[C@@H](C(=O)Nc4ccccc4Br)N(C(=O)[C@@H](NC(=O)OC(C)(C)C)C(C)(C)C)C3)cc(-c3ccccc3)nc2c1` belongs 3900 nM. The same measure, in the same setting: to `COc1ccc2c(O[C@@H]3C[C@@H](C(=O)Nc4ccccc4CC(=O)O)N(C(=O)[C@@H](NC(=O)OC(C)(C)C)C(C)(C)C)C3)cc(-c3ccccc3)nc2c1` belongs 17000 nM. On the same count and under the same terms, the figure for `COc1ccc2c(O[C@@H]3C[C@@H](C(=O)Nc4ccc(C(=O)NS(=O)(=O)c5ccccc5)cc4)N(C(=O)[C@@H](NC(=O)OC(C)(C)C)C(C)(C)C)C3)cc(-c3ccccc3)nc2c1` is 1100 nM; for `COc1ccc2c(O[C@@H]3C[C@@H](C(=O)Nc4c(C)cccc4C(=O)NS(=O)(=O)c4ccccc4)N(C(=O)[C@@H](NC(=O)OC(C)(C)C)C(C)(C)C)C3)cc(-c3ccccc3)nc2c1` it is 3200 nM. Consider `COc1ccc2c(O[C@@H]3C[C@@H](C(=O)Nc4ccc(C(=O)O)cc4)N(C(=O)[C@@H](NC(=O)OC(C)(C)C)C(C)(C)C)C3)cc(-c3ccccc3)nc2c1`, for which the affinity in data set [1], expressed as Ki, was 12000 nM. The same measure, in the same setting: to `COc1ccc2c(O[C@@H]3C[C@@H](C(=O)Nc4cccc(C(=O)O)c4)N(C(=O)[C@@H](NC(=O)OC(C)(C)C)C(C)(C)C)C3)cc(-c3ccccc3)nc2c1` belongs 6800 nM. On the same count and under the same terms, to `COc1ccc2c(O[C@@H]3C[C@@H](C(=O)Nc4ccccc4C(=O)NS(=O)(=O)Cc4ccccc4)N(C(=O)[C@@H](NC(=O)OC(C)(C)C)C(C)(C)C)C3)cc(-c3ccccc3)nc2c1` belongs 610 nM; to `COc1ccc2c(O[C@@H]3C[C@@H](C(=O)Nc4ccccc4C(=O)NS(=O)(=O)c4cccs4)N(C(=O)[C@@H](NC(=O)OC(C)(C)C)C(C)(C)C)C3)cc(-c3ccccc3)nc2c1`, 920 nM; to `COc1ccc2c(O[C@@H]3C[C@@H](C(=O)Nc4ccccc4C(=O)O)N(C(=O)[C@@H](NC(=O)OC(C)(C)C)C(C)(C)C)C3)cc(-c3ccccc3)nc2c1`, 5000 nM. As to `COc1ccc2c(O[C@@H]3C[C@@H](C(=O)Nc4cccc(Br)c4)N(C(=O)[C@@H](NC(=O)OC(C)(C)C)C(C)(C)C)C3)cc(-c3ccccc3)nc2c1`, the Ki in data set [1] came to 1400 nM.

On to `CC(C)(C)NC(=O)N[C@H](C(=O)N1C[C@H]2[C@@H]([C@H]1C(=O)NC(CC1CCC1)C(=O)C(N)=O)C2(C)C)C(C)(C)C` (stereo partly drawn) [BOCEPREVIR], for which the affinity in data set [1], expressed as Ki, was 14 nM. In the case of `COc1ccc2c(O[C@@H]3C[C@H]4C(=O)N[C@]5(C(=O)O)C[C@H]5/C=C\CCCCC[C@H](NC(=O)OC5CCCC5)C(=O)N4C3)cc(-c3csc(NC(C)C)n3)nc2c1` [CILUPREVIR], the inhibitory constant (Ki) in data set [1] is 0.66 nM. In the data set on Hepatitis C virus, this molecule displayed an EC50 of 3 nM. Turning to `COc1ccc2c(O[C@@H]3C[C@@H](C(=O)O)N(C(=O)[C@@H](NC(=O)OC(C)(C)C)C(C)(C)C)C3)cc(-c3ccccc3)nc2c1` [CORBOXYLIC ACID], in data set [1], the Ki is 66000 nM. Broadly, the IC50 is the concentration that inhibits the measured activity by half. Take `CC(C)(C)OC(=O)N[C@H]1CCCCC/C=C\[C@@H]2C[C@@]2(C(=O)NS(=O)(=O)C2CC2)NC(=O)[C@@H]2C[C@@H](OC(=O)N3Cc4cccc(F)c4C3)CN2C1=O` [DANOPREVIR]: the IC50 in data set [1] was less than 0.25 nM. In the data set on Hepatitis C virus, this molecule registered an EC50 of 2.1 nM. As for `CCC[C@H](NC(=O)[C@@H]1[C@H]2CCC[C@H]2CN1C(=O)[C@@H](NC(=O)[C@@H](NC(=O)c1cnccn1)C1CCCCC1)C(C)(C)C)C(=O)C(=O)NC1CC1` [TELAPREVIR], in data set [1], the Ki amounted to 39 nM. In the data set on Hepatitis C virus, a half-maximal effect (EC50) was put at 310 nM.

These data come from ChEMBL document CHEMBL1143948, “Hepatitis C virus NS3 protease inhibitors comprising a novel aromatic P1 moiety” (Bioorg Med Chem, 2008).
